# Assay results published in PubChem BioAssay (NCI).
#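 Tested at 5 concentrations; 48 h exposure; 96-well plates; endpoints linearly interpolated, else capped at highest concentration. GI50: concentration for 50% inhibition of growth. TGI is the concentration that stops growth completely.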
# Columns and labels:
# Assay in all cases: inhibition of tumour cell growth, NCI panel, 48 h
# [1] = tested on: COLO 205 colon
# [2] = tested on: EKVX NSCLC
# [3] = tested on: HL-60(TB) leukemia
# [4] = tested on: LOX IMVI melanoma
# [5] = tested on: NCI-H522 lung
# [6] = tested on: OVCAR-5 ovarian
# [7] = tested on: RXF 393 renal
# [8] = tested on: SNB-19 CNS
# [9] = tested on: U251 CNS
# [10] = tested on: RPMI-8226 leukemia
SMILES,GI50 [1],TGI [1],GI50 [2],TGI [2],TGI [3],TGI [4],TGI [5],TGI [6],TGI [7],TGI [8],TGI [9],TGI [10],GI50 [3],GI50 [5],GI50 [6],GI50 [10],GI50 [7],GI50 [8],GI50 [9]
O=C(N/N=C/c1cc(Cl)cc(Cl)c1[O-])c1ccccc1O.O=C(N/N=C/c1cc(Cl)cc(Cl)c1[O-])c1ccccc1O.[Ni+2],0.794 µM,11.6 µM,1.33 µM,5.28 µM,0.472 µM,1.81 µM,0.823 µM,1.09 µM,2.1 µM,8.85 µM,1.98 µM,–,–,–,–,–,–,–,–
O=c1c(C=Nc2ccc([N+](=O)[O-])cc2)c(O)n(-c2ccccc2)c(=O)n1-c1ccccc1,–,> 100 µM,–,> 100 µM,–,> 100 µM,> 100 µM,> 100 µM,> 100 µM,> 100 µM,> 100 µM,> 100 µM,–,–,–,–,–,–,–
OC1(c2cc3ccccc3s2)CCCCC1,–,41.8 µM,–,71.7 µM,> 100 µM,> 100 µM,65.6 µM,> 100 µM,> 100 µM,> 100 µM,> 100 µM,–,–,–,–,–,–,–,–
C/C(=N\NC(N)=S)C(CN(CC(C)C)CC(C)C)C(=O)Nc1ccc(C)cc1C (configuration not stated),–,> 100 µM,–,> 100 µM,> 100 µM,> 100 µM,> 100 µM,> 100 µM,> 100 µM,> 100 µM,> 100 µM,–,–,–,–,–,–,–,–
COc1cccc(/C=N/[N-]C(N)=O)c1[O-].[Ni+2].[OH3+].c1cnc2c(c1)ccc1cccnc12,–,> 100 µM,–,–,> 100 µM,> 100 µM,–,> 100 µM,–,> 100 µM,> 100 µM,> 100 µM,69.5 µM,–,–,–,–,–,–
CN(C)CCSC(=Nc1ccccc1)N1CCCCC1,–,28.8 µM,–,–,49.5 µM,30 µM,29 µM,35.3 µM,34.7 µM,> 100 µM,> 100 µM,87.4 µM,–,–,–,–,–,–,–
Cc1ccc(N2CCc3c(C)c(C#N)c4nc5ccccc5n4c32)cc1,–,> 100 µM,–,–,> 100 µM,> 100 µM,> 100 µM,> 100 µM,> 100 µM,> 100 µM,> 100 µM,–,–,–,–,–,–,–,–
Cc1ccc(C(C2C(=O)N(C)C(=O)N(C)C2=O)C(F)(F)C(=O)N(C)C)cc1 (configuration not stated),–,> 100 µM,–,> 100 µM,–,> 100 µM,–,> 100 µM,> 100 µM,> 100 µM,> 100 µM,> 100 µM,–,–,–,–,–,–,–
CCc1ccc2[nH]c(O)c(-c3[nH]c4ccccc4c3N=O)c2c1,–,23.2 µM,–,20 µM,–,26.7 µM,16 µM,58.2 µM,11.2 µM,31.6 µM,21.5 µM,> 100 µM,–,–,–,–,–,–,–
COC(OC)C1OC(CO)C(n2ccc(N)nc2=O)C1O (configuration not stated),–,> 100 µM,–,> 100 µM,–,> 100 µM,> 100 µM,> 100 µM,> 100 µM,> 100 µM,> 100 µM,> 100 µM,–,–,–,–,–,–,–
COc1ccc2c(c1)n([O-])c(C#N)c(N1CCN(c3ccc([N+](=O)[O-])cc3)CC1)[n+]2=O,–,–,–,> 100 µM,29.1 µM,> 28.8 µM,9.97 µM,> 100 µM,41.8 µM,> 100 µM,> 100 µM,–,–,–,–,–,–,–,–
C#CC(F)(F)[C@]1(O)CC[C@H]2[C@@H]3CCC4=CC(=O)CCC4=C3[C@@H](c3ccc(C(C)=O)cc3)C[C@@]21C,13.1 µM,38.6 µM,–,–,–,–,0.0331 µM,> 100 µM,39.8 µM,> 100 µM,> 92.9 µM,6.25 µM,–,0.0167 µM,28.3 µM,0.333 µM,13.4 µM,28.4 µM,17.7 µM
CCOC(=O)/C=C(\C(=O)OCC)n1ccc(N)nc1=O,–,> 100 µM,–,> 100 µM,> 100 µM,> 100 µM,40.8 µM,> 100 µM,–,> 100 µM,> 100 µM,> 100 µM,–,–,–,–,–,–,–
COc1cccc(Cc2c3cc(OC)ccc3cc[n+]2C)c1,–,–,–,> 100 µM,–,–,92.3 µM,> 100 µM,–,> 100 µM,> 100 µM,> 100 µM,–,–,–,–,–,–,–
O=C(NC1CCN(Cc2ccccc2)CC1)c1cc2nc(-c3ccc(Cl)s3)cc(C(F)(F)F)n2n1,–,–,–,–,–,–,> 100 µM,–,> 100 µM,> 100 µM,> 100 µM,–,–,8.45 µM,–,–,3.23 µM,> 100 µM,5.98 µM
O=c1[nH]c(=O)n(Cc2ccccc2CO)cc1Sc1ccccc1,–,> 100 µM,–,60.8 µM,> 100 µM,–,3.81 µM,> 100 µM,80.9 µM,> 100 µM,> 100 µM,–,–,–,–,–,–,–,–
